Read-outs that look alike come from different tables or passages of the source.
What was measured:
[1] = target: T1, ADCK4 (Homo sapiens, UniProt Q96D53); assay: biochemical; design: KINOMEscan active site-directed competition binding assay (DiscoveRx), 456 kinases, per cent of control at 300 nM; conditions: read-out: Percent of Control (%)
T1 construct: gene COQ8B
Summary of the method: (§1)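 At 300 nmol/L, compounds were assessed for kinase binding in an active site-directed competition format covering 456 kinases.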

[2] = target: AKT3 (Homo sapiens, UniProt Q9Y243); assay: biochemical; design: KINOMEscan active site-directed competition binding assay (DiscoveRx), 456 kinases, per cent of control at 300 nM; conditions: read-out: Percent of Control (%)
Summary of the method: as §1

[3] = target: BMPR1A (Homo sapiens, UniProt P36894); assay: biochemical; design: KINOMEscan active site-directed competition binding assay (DiscoveRx), 456 kinases, per cent of control at 300 nM; conditions: read-out: Percent of Control (%)
Summary of the method: as §1

[4] = target: T2, BRK (Homo sapiens, UniProt Q13882); assay: biochemical; design: KINOMEscan active site-directed competition binding assay (DiscoveRx), 456 kinases, per cent of control at 300 nM; conditions: read-out: Percent of Control (%)
T2 construct: gene PTK6
T2 sequence (Q13882 whole entry): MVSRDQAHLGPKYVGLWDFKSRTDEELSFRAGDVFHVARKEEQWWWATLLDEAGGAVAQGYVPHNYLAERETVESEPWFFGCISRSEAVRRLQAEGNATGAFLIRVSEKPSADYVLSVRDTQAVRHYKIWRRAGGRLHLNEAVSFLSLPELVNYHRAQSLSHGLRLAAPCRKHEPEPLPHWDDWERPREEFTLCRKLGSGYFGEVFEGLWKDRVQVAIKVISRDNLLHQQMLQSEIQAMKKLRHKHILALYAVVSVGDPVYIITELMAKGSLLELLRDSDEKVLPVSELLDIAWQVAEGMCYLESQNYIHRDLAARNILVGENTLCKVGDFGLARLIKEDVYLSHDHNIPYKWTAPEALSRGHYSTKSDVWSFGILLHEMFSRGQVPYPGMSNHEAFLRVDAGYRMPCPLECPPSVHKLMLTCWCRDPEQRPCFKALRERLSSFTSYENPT
Summary of the method: as §1

[5] = target: T3, CDK11 (Homo sapiens, UniProt Q9BWU1); assay: biochemical; design: KINOMEscan active site-directed competition binding assay (DiscoveRx), 456 kinases, per cent of control at 300 nM; conditions: read-out: Percent of Control (%)
T3 construct: gene CDK19
Summary of the method: as §1

[6] = target: T4, DCAMKL1 (Homo sapiens, UniProt O15075); assay: biochemical; design: KINOMEscan active site-directed competition binding assay (DiscoveRx), 456 kinases, per cent of control at 300 nM; conditions: read-out: Percent of Control (%)
T4 construct: gene DCLK1
T4 sequence (O15075 whole entry): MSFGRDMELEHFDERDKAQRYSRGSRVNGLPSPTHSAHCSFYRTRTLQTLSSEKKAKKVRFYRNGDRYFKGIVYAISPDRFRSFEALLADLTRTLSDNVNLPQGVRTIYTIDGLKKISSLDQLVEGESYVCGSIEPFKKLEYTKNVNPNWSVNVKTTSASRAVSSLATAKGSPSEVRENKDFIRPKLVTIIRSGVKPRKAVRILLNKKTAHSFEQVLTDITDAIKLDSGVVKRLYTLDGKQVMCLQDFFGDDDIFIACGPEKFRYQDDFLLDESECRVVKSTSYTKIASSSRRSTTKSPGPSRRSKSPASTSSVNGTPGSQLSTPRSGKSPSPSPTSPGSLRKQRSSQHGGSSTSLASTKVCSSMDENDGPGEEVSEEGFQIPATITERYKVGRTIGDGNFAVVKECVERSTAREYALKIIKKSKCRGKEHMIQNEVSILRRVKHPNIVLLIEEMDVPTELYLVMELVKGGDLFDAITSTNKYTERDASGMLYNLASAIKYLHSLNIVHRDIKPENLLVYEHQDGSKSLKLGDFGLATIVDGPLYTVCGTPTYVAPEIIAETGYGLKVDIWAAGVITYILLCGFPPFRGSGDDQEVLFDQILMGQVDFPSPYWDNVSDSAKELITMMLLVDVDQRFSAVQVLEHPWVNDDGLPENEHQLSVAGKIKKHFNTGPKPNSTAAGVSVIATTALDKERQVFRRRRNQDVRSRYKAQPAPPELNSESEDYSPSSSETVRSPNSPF
Summary of the method: as §1

[7] = target: EPHA3 (Homo sapiens, UniProt P29320); assay: biochemical; design: KINOMEscan active site-directed competition binding assay (DiscoveRx), 456 kinases, per cent of control at 300 nM; conditions: read-out: Percent of Control (%)
Sequence of EPHA3 (P29320 whole entry): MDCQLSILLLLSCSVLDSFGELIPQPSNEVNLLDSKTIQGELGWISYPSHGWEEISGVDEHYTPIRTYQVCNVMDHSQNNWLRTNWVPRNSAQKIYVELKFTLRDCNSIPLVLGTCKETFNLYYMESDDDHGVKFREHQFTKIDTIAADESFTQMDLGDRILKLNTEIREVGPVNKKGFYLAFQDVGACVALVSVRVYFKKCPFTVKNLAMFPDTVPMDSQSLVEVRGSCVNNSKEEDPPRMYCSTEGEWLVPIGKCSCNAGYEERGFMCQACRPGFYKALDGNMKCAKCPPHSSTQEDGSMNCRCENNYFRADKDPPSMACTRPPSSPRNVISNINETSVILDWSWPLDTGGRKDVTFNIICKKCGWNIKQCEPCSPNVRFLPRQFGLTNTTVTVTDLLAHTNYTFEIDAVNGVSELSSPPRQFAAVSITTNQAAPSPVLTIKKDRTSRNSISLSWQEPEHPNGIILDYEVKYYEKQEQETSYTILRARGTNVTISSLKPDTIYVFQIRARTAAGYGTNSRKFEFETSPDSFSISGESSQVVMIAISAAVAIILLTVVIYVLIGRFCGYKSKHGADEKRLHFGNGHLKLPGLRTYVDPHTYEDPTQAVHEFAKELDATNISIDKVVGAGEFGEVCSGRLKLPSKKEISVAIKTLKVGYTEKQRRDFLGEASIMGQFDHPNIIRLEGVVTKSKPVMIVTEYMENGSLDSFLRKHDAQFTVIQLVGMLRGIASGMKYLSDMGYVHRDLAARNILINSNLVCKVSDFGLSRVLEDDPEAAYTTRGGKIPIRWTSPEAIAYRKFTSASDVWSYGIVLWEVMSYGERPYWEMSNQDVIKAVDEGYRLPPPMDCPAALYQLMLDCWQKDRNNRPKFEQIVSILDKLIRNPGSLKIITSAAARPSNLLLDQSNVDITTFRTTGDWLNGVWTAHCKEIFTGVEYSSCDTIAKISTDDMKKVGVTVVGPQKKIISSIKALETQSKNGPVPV
Summary of the method: as §1

[8] = target: FLT3(D835Y) (Homo sapiens, UniProt P36888, D835Y); assay: biochemical; design: KINOMEscan active site-directed competition binding assay (DiscoveRx), 456 kinases, per cent of control at 300 nM; conditions: read-out: Percent of Control (%)
Summary of the method: as §1

[9] = target: T5, HASPIN (Homo sapiens, UniProt Q8TF76); assay: biochemical; design: KINOMEscan active site-directed competition binding assay (DiscoveRx), 456 kinases, per cent of control at 300 nM; conditions: sheet T-418; read-out: Percent of Control (%)
T5 sequence (Q8TF76 whole entry): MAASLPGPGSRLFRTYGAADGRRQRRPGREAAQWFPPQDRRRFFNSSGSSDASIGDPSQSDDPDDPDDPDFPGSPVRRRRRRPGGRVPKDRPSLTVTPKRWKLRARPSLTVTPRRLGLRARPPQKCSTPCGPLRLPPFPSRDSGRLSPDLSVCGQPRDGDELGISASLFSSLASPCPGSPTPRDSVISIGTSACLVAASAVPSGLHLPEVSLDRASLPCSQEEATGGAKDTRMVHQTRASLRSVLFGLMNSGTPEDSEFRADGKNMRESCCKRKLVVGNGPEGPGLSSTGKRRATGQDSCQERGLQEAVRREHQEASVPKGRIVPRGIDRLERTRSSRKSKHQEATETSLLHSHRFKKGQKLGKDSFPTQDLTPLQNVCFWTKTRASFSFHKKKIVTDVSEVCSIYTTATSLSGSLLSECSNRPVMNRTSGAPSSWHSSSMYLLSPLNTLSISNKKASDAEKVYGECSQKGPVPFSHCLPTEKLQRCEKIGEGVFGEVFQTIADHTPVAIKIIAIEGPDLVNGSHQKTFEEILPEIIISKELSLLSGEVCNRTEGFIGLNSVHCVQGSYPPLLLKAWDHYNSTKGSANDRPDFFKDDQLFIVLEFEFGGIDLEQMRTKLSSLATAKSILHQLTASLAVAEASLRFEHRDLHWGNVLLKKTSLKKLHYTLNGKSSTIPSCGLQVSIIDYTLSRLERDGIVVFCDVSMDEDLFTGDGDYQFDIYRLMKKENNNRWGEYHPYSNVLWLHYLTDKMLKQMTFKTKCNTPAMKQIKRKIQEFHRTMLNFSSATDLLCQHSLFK
Summary of the method: as §1

[10] = target: HIPK4 (Homo sapiens, UniProt Q8NE63); assay: biochemical; design: KINOMEscan active site-directed competition binding assay (DiscoveRx), 456 kinases, per cent of control at 300 nM; conditions: read-out: Percent of Control (%)
Summary of the method: as §1

[11] = target: IGF1R (Homo sapiens, UniProt P08069); assay: biochemical; design: KINOMEscan active site-directed competition binding assay (DiscoveRx), 456 kinases, per cent of control at 300 nM; conditions: read-out: Percent of Control (%)
Summary of the method: as §1

[12] = target: T6, JAK1(JH1domain-catalytic) (Homo sapiens, UniProt P23458); assay: biochemical; design: KINOMEscan active site-directed competition binding assay (DiscoveRx), 456 kinases, per cent of control at 300 nM; conditions: read-out: Percent of Control (%)
T6 construct: JH1domain-catalytic
T6 sequence (P23458 whole entry): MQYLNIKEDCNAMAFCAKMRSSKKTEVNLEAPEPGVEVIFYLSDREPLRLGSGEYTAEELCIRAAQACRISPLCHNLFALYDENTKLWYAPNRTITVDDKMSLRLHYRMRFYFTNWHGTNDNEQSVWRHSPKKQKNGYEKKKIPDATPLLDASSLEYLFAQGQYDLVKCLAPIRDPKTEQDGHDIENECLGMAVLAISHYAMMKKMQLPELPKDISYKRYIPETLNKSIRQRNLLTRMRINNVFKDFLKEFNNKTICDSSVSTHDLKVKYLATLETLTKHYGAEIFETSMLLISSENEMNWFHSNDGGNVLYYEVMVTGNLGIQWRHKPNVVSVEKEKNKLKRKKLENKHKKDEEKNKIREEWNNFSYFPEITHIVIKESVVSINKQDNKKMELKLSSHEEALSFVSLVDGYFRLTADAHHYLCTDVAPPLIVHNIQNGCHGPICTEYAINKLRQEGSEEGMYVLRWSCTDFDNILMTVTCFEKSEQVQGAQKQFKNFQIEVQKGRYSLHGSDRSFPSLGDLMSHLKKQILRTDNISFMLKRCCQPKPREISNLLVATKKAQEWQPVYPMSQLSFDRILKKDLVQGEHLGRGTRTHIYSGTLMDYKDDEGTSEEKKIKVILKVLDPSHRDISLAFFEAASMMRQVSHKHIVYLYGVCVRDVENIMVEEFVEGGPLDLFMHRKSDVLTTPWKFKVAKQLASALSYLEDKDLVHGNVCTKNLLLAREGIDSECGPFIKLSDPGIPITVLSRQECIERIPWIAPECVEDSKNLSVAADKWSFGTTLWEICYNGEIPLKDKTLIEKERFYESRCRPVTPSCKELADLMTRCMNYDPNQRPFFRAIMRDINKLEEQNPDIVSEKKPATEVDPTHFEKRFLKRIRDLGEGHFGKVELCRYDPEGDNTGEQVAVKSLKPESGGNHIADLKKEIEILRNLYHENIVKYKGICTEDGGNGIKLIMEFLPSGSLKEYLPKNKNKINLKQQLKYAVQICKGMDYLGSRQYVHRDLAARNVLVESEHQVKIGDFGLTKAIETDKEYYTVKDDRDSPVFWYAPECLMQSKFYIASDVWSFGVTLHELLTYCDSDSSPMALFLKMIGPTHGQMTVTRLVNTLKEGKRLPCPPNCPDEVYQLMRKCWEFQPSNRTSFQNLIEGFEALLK
Summary of the method: as §1

[13] = target: KIT (Homo sapiens, UniProt P10721); assay: biochemical; design: KINOMEscan active site-directed competition binding assay (DiscoveRx), 456 kinases, per cent of control at 300 nM; conditions: read-out: Percent of Control (%)
Sequence of KIT (P10721 whole entry): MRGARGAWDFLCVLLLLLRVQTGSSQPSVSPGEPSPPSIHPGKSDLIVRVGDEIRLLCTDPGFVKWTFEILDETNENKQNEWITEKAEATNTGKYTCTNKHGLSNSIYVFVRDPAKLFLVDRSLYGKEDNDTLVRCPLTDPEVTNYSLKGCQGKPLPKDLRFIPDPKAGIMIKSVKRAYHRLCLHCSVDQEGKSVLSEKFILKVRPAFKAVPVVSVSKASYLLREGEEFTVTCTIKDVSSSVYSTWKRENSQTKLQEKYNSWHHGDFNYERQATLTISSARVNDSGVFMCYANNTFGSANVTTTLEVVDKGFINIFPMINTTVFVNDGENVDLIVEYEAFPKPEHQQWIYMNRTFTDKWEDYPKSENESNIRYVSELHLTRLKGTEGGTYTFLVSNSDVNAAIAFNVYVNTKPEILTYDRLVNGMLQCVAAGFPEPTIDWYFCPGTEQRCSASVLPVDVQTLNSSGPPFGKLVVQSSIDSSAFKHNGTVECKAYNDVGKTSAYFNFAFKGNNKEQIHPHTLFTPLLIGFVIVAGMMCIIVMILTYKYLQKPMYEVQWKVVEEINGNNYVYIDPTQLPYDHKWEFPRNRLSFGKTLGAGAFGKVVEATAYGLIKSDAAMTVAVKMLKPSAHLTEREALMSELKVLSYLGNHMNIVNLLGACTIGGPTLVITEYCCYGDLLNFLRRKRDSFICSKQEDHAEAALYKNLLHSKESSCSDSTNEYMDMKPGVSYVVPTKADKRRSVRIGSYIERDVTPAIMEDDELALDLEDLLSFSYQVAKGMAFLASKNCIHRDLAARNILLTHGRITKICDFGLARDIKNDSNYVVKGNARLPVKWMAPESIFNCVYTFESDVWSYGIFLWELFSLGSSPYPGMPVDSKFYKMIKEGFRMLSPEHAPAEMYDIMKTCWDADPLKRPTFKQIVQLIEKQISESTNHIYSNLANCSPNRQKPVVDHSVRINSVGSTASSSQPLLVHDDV
Summary of the method: as §1

[14] = target: T7, LKB1 (Homo sapiens, UniProt Q15831); assay: biochemical; design: KINOMEscan active site-directed competition binding assay (DiscoveRx), 456 kinases, per cent of control at 300 nM; conditions: read-out: Percent of Control (%)
T7 construct: gene STK11
Summary of the method: as §1

[15] = target: PAK2 (Homo sapiens, UniProt Q13177); assay: biochemical; design: KINOMEscan active site-directed competition binding assay (DiscoveRx), 456 kinases, per cent of control at 300 nM; conditions: read-out: Percent of Control (%)
Summary of the method: as §1

[16] = target: T8, PAK7 (Homo sapiens, UniProt Q9P286); assay: biochemical; design: KINOMEscan active site-directed competition binding assay (DiscoveRx), 456 kinases, per cent of control at 300 nM; conditions: read-out: Percent of Control (%)
T8 construct: gene PAK5
Summary of the method: as §1

[17] = target: PIK3CA(H1047Y) (Homo sapiens, UniProt P42336, H1047Y); assay: biochemical; design: KINOMEscan active site-directed competition binding assay (DiscoveRx), 456 kinases, per cent of control at 300 nM; conditions: read-out: Percent of Control (%)
Summary of the method: as §1

[18] = target: RAF1 (Homo sapiens, UniProt P04049); assay: biochemical; design: KINOMEscan active site-directed competition binding assay (DiscoveRx), 456 kinases, per cent of control at 300 nM; conditions: read-out: Percent of Control (%)
Summary of the method: as §1

[19] = target: T9, RPS6KA5(Kin.Dom.2-C-terminal) (Homo sapiens, UniProt O75582); assay: biochemical; design: KINOMEscan active site-directed competition binding assay (DiscoveRx), 456 kinases, per cent of control at 300 nM; conditions: read-out: Percent of Control (%)
T9 construct: Kin.Dom.2-C-terminal
Summary of the method: as §1

[20] = target: TNK2 (Homo sapiens, UniProt Q07912); assay: biochemical; design: KINOMEscan active site-directed competition binding assay (DiscoveRx), 456 kinases, per cent of control at 300 nM; conditions: read-out: Percent of Control (%)
Summary of the method: as §1

[21] = target: T10, TYK2(JH1domain-catalytic) (Homo sapiens, UniProt P29597); assay: biochemical; design: KINOMEscan active site-directed competition binding assay (DiscoveRx), 456 kinases, per cent of control at 300 nM; conditions: read-out: Percent of Control (%)
T10 construct: JH1domain-catalytic
Summary of the method: as §1

[22] = target: T5, HASPIN; assay: KINOMEscan competition binding at a single concentration ([…]); conditions: read-out: % inhibition at 300 nM

Q: How did the remaining binding at 0.3 µM ([1]; sheet T-418) turn out when O=C(/C=C/c1cnccc1-c1ccc(F)cc1)Nc1ccc(CCc2nnco2)cc1 [T-418, (2E)-3-(4-(4-fluorophenyl)pyridin-3-yl)-N-(4-(2-(1,3,4-oxadiazol-2-yl)ethyl)phenyl)acrylamide] was run?
A: 91%

Q: And the remaining binding at 0.3 µM ([2]; sheet T-418)?
A: 100%

Q: What about the remaining binding at 0.3 µM ([3]; sheet T-418) of the same compound?
A: 79%

Q: What about the remaining binding at 0.3 µM ([4]; sheet T-418) of the same compound?
A: 87%

Q: And the remaining binding at 0.3 µM ([5]; sheet T-418)?
A: 6.4%

Q: What about the remaining binding at 0.3 µM ([6]; sheet T-418) of the same compound?
A: 52%

Q: And the remaining binding at 0.3 µM ([7]; sheet T-418)?
A: 100%

Q: What about the remaining binding at 0.3 µM ([8]; sheet T-418) of the same compound?
A: 100%

Q: What about the remaining binding at 0.3 µM [9] of the same compound?
A: 90%

Q: And the remaining binding at 0.3 µM ([10]; sheet T-418)?
A: 84%

Q: What about the remaining binding at 0.3 µM ([11]; sheet T-418) of the same compound?
A: 87%

Q: And the remaining binding at 0.3 µM ([12]; sheet T-418)?
A: 69%

Q: What about the remaining binding at 0.3 µM ([13]; sheet T-418) of the same compound?
A: 100%

Q: And the remaining binding at 0.3 µM ([14]; sheet T-418)?
A: 53%

Q: What about the remaining binding at 0.3 µM ([15]; sheet T-418) of the same compound?
A: 70%

Q: What about the remaining binding at 0.3 µM ([16]; sheet T-418) of the same compound?
A: 100%

Q: And the remaining binding at 0.3 µM ([17]; sheet T-418)?
A: 73%

Q: What about the remaining binding at 0.3 µM ([18]; sheet T-418) of the same compound?
A: 80%

Q: And the remaining binding at 0.3 µM ([19]; sheet T-418)?
A: 100%

Q: And the remaining binding at 0.3 µM ([20]; sheet T-418)?
A: 100%

Q: What about the remaining binding at 0.3 µM ([21]; sheet T-418) of the same compound?
A: 40%

Q: Cc1ncccc1Oc1sc(C(N)=O)c2c1-c1c(cnn1C)CC2 [T-474, 1-methyl-8-((2-methylpyridin-3-yl)oxy)-4,5-dihydro-1H-thieno[3,4-g]indazole-6-carboxamide] was tested. Which inhibition at 0.3 µM [22] did it give?
A: 99%

Q: And the remaining binding at 0.3 µM [1]?
A: 92%

Q: What about the remaining binding at 0.3 µM [2] of the same compound?
A: 97%

Q: What about the remaining binding at 0.3 µM [3] of the same compound?
A: 100%

Q: And the remaining binding at 0.3 µM [4]?
A: 100%

Q: What about the remaining binding at 0.3 µM [5] of the same compound?
A: 1.1%

Q: What about the remaining binding at 0.3 µM [6] of the same compound?
A: 69%

Q: What about the remaining binding at 0.3 µM [7] of the same compound?
A: 100%

Q: What about the remaining binding at 0.3 µM [8] of the same compound?
A: 60%

Q: What about the remaining binding at 0.3 µM [10] of the same compound?
A: 68%

Q: And the remaining binding at 0.3 µM [11]?
A: 98%

Q: And the remaining binding at 0.3 µM [12]?
A: 73%

Q: And the remaining binding at 0.3 µM [13]?
A: 100%

Q: And the remaining binding at 0.3 µM [14]?
A: 67%

Q: What about the remaining binding at 0.3 µM [15] of the same compound?
A: 88%

Q: And the remaining binding at 0.3 µM [16]?
A: 100%

Q: What about the remaining binding at 0.3 µM [17] of the same compound?
A: 54%

Q: And the remaining binding at 0.3 µM [18]?
A: 98%

Q: What about the remaining binding at 0.3 µM [19] of the same compound?
A: 100%

Q: And the remaining binding at 0.3 µM [20]?
A: 100%

Q: What about the remaining binding at 0.3 µM [21] of the same compound?
A: 40%

Source: publication PMC5862592, “CDK8/19 inhibition induces premature G1/S transition and ATR-dependent cell death in prostate cancer cells” (Oncotarget, 2018)
